Columns and labels:
Format in all cases: cell-based
[1] = test system: human GAPDH mRNA transcript; assay: GAPDH specificity screen in human A549 cells; conditions: Table 5; 1 nM siNA, STAT 4 as endogenous control, relative to universal control siNA
Procedure: To evaluate the expression level and % knock-down of GAPDH, STAT 4 gene was used as an endogenous control to calculate ΔCt for siNA treated samples and the universal control:
STAT 4 gene was selected as an internal normalizer based on its relatively consistent expression across 49 test samples in three independent experiments. ΔΔCt, Relative expression level and % KD were calculated as described above.
The specificity of these siNAs was also assessed. These siNAs were tested at a lower concentration (1 nM versus the original screening concentration of 10 nM) to determine the effect of the Bach1 siNAs on the mRNA transcript of human GAPDH.

TLR8 = target: T1, TLR8 (Homo sapiens, UniProt Q9NR97)
T1 construct: expressed in transfected cells
T1 sequence (Q9NR97 27-1041): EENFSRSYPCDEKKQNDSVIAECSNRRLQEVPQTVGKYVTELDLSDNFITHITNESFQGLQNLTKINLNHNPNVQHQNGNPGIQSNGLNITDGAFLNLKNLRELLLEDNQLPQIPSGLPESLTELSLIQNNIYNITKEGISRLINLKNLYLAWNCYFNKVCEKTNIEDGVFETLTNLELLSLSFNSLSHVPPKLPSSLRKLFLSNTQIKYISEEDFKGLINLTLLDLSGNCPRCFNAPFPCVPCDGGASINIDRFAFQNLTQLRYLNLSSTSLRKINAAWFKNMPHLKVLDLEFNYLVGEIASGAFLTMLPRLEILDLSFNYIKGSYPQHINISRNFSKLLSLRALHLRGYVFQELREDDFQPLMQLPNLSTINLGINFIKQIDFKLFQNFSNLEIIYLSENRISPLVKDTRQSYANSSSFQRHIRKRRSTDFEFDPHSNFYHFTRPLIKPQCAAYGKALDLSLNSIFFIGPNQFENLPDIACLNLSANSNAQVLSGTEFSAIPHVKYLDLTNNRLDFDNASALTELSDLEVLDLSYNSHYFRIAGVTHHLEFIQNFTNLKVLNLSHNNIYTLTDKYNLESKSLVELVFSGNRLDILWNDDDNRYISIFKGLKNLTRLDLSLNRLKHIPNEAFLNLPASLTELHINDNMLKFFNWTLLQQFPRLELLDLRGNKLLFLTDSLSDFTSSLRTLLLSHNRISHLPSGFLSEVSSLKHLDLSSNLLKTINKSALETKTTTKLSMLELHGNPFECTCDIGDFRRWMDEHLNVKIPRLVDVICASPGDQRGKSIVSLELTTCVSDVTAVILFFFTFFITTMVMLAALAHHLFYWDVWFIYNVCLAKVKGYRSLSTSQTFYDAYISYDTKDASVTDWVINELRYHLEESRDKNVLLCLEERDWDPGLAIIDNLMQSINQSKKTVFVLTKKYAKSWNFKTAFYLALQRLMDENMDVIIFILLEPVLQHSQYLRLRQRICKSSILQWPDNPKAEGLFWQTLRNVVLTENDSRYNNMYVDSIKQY
Procedure: (§1) Human U205-TLR7 and Human U205-TLR8 cells were grown at 37 degrees in the presence of 5% CO2 and were cultured in Dulbeco's modified Eagle's Medium (DMEM), 1% non essential amino acids, supplemented with fetal bovine serum at 10% and 100 ug/ml streptomycin and 100 u/ml penicillin. Stable expression of TLR7 and TLR8 was maintained by the addition of 300 ug/ml […].
(§2) TLR7 and TLR8 expressing U2OS osteosarcoma cells were seeded in 96-well plate format at a concentration of 2×10^4 cells/well 24 hours prior to transfection. Cells were transfected with the siNAs using DharmaFECT1 lipid transfection reagent using Resiquimod (R848) and the LyoVec-complexed, GU-rich oligonucleotide ssRNA40 respectively as controls (100 μl/well). (DharmaFECT1 was used as the delivery agent for the siNAs as it combines low immunostimulatory effects with high delivery efficiency.) The treatment media were replaced after 6 hours with antibiotic containing DMEM. Cells were harvested 24 hours following transfection. […] An agonist concentration range of 4-10 μg/ml was established since it caused optimal levels of IL8 mRNA expression for the assay.
(§3) TLR7 and TLR8 mediated immunostimulation was measured by the increase in IL8 mRNA levels when the siNAs were formulated with DharmaFect1 (Gibco BRL) and delivered to U2OS cells that were engineered to stably express TLR7 or TLR8. The cells were treated with the TLR7 and TLR8 agonists Resiquimod (R848) and ssRNA40/LyoVec respectively to act as positive controls for IL8 mRNA induction. IL8 mRNA levels were used as a biomarker of TLR7 and TLR8 mediated immunostimulation.

TLR7 = target: T2, TLR7 (Homo sapiens, UniProt Q9NYK1)
T2 construct: expressed in transfected cells
T2 sequence (Q9NYK1 27-1049): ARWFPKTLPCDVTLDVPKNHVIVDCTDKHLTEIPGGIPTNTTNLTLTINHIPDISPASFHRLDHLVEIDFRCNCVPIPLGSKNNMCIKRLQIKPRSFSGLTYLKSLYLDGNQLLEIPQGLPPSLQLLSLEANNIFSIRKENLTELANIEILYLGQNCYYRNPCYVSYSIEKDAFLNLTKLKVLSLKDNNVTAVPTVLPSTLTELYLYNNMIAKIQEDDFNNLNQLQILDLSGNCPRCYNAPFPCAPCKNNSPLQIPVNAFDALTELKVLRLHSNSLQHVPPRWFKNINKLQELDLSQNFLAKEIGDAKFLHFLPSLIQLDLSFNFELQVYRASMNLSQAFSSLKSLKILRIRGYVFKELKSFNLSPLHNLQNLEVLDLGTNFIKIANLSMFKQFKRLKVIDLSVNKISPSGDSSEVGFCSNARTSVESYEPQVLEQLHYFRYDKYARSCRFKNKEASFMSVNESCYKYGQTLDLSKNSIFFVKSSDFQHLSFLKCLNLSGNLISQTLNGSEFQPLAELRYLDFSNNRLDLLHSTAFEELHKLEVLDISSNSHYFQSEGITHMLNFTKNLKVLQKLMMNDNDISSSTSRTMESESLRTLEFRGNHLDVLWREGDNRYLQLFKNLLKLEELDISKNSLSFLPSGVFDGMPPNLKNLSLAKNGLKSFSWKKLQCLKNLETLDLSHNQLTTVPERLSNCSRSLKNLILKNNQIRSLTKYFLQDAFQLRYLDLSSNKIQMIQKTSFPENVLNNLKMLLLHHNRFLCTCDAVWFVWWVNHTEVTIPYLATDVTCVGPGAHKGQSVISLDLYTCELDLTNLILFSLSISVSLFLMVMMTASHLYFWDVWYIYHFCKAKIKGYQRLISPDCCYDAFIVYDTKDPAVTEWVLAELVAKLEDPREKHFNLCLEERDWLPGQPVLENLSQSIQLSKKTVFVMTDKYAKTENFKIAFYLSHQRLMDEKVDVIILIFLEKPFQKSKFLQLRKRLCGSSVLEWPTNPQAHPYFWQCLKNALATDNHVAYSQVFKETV
Procedure: as §1, §2, §3

Substance	% KD GAPDH [1]	Immunostimulation TLR8 mediated in Human U2OS-TLR8 cells IL8 mRNA increase n = 4 individual expts (TLR8)	TLR8 mediated immunostimulatory activity (IL8 mRNA induction) (TLR8)	Immunostimulation TLR7 mediated in Human U2OS- TLR7 cells IL8 mRNA increase n = 4 individual expts (TLR7)	TLR7 mediated immunostimulatory activity (IL8 mRNA induction) (TLR7)
29947-DC (sense GGAAUCCUGCUUUCAGUUUTT; antisense AAACUGAAAGCAGGAUUCCUU; inverted abasic caps (B), 2'-modified nucleotides, further chemistry not given here)	−15 ± 29%	No significant effect up to 100 nM	no TLR8 mediated immunostimulatory activity	No significant effect up to 100 nM	no or very low TLR7 mediated immunostimulatory activity
29956-DC (sense GUCUGAGUGUCCGUGGUUATT; antisense UAACCACGGACACUCAGACUU; inverted abasic caps (B), 2'-modified nucleotides, further chemistry not given here)	−18 ± 15%	No significant effect up to 100 nM		No significant effect up to 100 nM	
29957-DC (sense GCAGUUACUUCCACUCAAGTT; antisense CUUGAGUGGAAGUAACUGCUU; inverted abasic end caps, TT overhangs, modified nucleotides, further chemistry not given here)	−10 ± 9%	Upregulation up to 100 nM		Upregulation up to 100 nM	
29961-DC (sense CUACACUGCUAAACUGAUUTT; antisense AAUCAGUUUAGCAGUGUAGUU; inverted abasic end caps, TT overhangs, modified nucleotides, further chemistry not given here)	7 ± 7%	No significant effect up to 100 nM	no TLR8 mediated immunostimulatory activity	No significant effect up to 100 nM	no or very low TLR7 mediated immunostimulatory activity
29964-DC (sense GAUUUGCAGGUGAUGUUAATT; antisense UUAACAUCACCUGCAAAUCUU; inverted abasic end caps, TT overhangs, modified nucleotides, further chemistry not given here)	14 ± 2%	No significant effect up to 100 nM	no TLR8 mediated immunostimulatory activity	No significant effect up to 100 nM	no or very low TLR7 mediated immunostimulatory activity
29984-DC (sense GUUAAAGGAUUUGAACCUUTT; antisense AAGGUUCAAAUCCUUUAACUU; inverted abasic end caps, TT overhangs, modified nucleotides, further chemistry not given here)		No significant effect up to 100 nM	no TLR8 mediated immunostimulatory activity	No significant effect up to 100 nM	no or very low TLR7 mediated immunostimulatory activity
29988-DC (sense AUUUGAACCUUUAAUUCAGTT; antisense CUGAAUUAAAGGUUCAAAUUU; inverted abasic end caps, TT overhangs, modified nucleotides, further chemistry not given here)	23 ± 5%	No significant effect up to 100 nM	no TLR8 mediated immunostimulatory activity	No significant effect up to 100 nM	no or very low TLR7 mediated immunostimulatory activity
